{"source": "patent US20130266557A1", "about": "“METHODS FOR TREATMENT OF A SARCOMA USING AN EPIMETABOLIC SHIFTER (COENZYME Q10)” (priority 2009, published 2013)", "key": {"NCIES0808 cells [1]": {"system": "NCIES0808 cells", "assay": "Real-time PCR, Human Angiogenesis Arrays", "type": "cell-based", "conditions": "100 uM Q10", "experimental": "(§1) NCIES0808 cells were plated in T25 flasks at a density of 2×10^6 cells per flask in media or media containing 50 uM/100 uM Q10. All treatment groups were run in triplicate. Cells were harvested at 0, 3, 6, 24 or 48 hours. Pictures were taken to examine cell morphology before harvesting. To harvest cells, media was removed but saved to be able to collect floating apoptotic cells. Cells were trypsinized with 1 ml of trypsin-EDTA and the enzyme action was stopped by addition of 4 ml complete media. Trypsinized cells were added to the appropriate tube containing the media with dead cells. Cells were centrifuged at 1200 rpm for 5 minutes and media was aspirated leaving behind the cell pellet for RNA extraction. RNA isolation from cell pellets was carried out with the RNeasy kit (Qiagen, Valencia Calif.) according to the manufacturer's instructions. RNA samples were eluted from spin columns in water; absorbance was measured at 260 nm, 230 nm and 280 nm. The purity of RNA was evaluated by the 260/230 and 280/230 ratios. The concentration of RNA in all of the samples was calculated from absorbance values at […]. First strand cDNA was synthesized from 0.5 ug of all RNA samples using instructions provided with the First strand kit (SABiosciences, Frederick, Md.). The synthesized first strand from a sample was dispensed equally in a PCR array plate containing primers within a pathway (Angiogenesis, Diabetes and Mitochondria) (SABiosciences Corporation, Frederick, Md.). The arrays were amplified with real time PCR using the SYBR green detection methods using manufacturer approved protocols. The ct values from each of the samples were normalized to three housekeeping genes and fold regulation of Q10 treated groups was compared to time matched controls from cells grown in regular media was calculated.\nThe experiments described in this example were performed to test the overall hypothesis that Q10 would have an impact on expression of multiple genes in Ewing's sarcoma cells. The mRNA from NCIES0808 cells treated with 50 μM or 100 μM Q10 for various times was evaluated by RT-PCR against a panel of target proteins involved in human diabetes, human angiogenesis or human mitochondrial pathways.\nCt values obtained from a real time thermocycler were loaded onto the analysis tool on the SABiosciences website for calculation of fold regulation compared to cells with media. The genes that are included in the tables below are those that show a p value of close to 0.05."}, "NCIES0808 cells [2]": {"system": "NCIES0808 cells", "assay": "Antibody microarray analysis of protein levels", "type": "cell-based, human", "experimental": "NCIES0808 cells were received from SBH in T165 flasks (×55). […] The cell morphology was examined closely under a microscope and the cells were noted to appear healthy with no visual signs of contamination or intracellular inclusions.\nA 500 μM Q10 stock was made using the same protocol outlined for the PCR arrays. The media was exchanged in every flask with 50 μM and 100 μM Q10 media being placed into the appropriate flasks. The cells were incubated for 3 hr and 6 hr in the Q10 formulated media and the cells were harvested. Each flask was washed with 10 ml of ice cold PBS and trypsinized with 5 ml of trypsin-EDTA. The cells were harvested by gentle pipetting and the enzyme action was stopped by addition of 30 ml complete media. The cells were centrifuged at 1200 rpm for 5 minutes and media was aspirated from the tube leaving behind the cell pellet for protein extraction.\nThe proteins were extracted from the cells as per page 2; sub-category IA; of the manufacture's Product Information Sheet, Sigma®, Panarama® Antibody Microarray EPRESS Profiler725, cat#: XP725. The protein material from the whole cell lysates was conjugated with Cy3 and Cy5 dyes, GE Healthcare, product #: 25-8009-86 Cy3 and 25-8009-87 Cy5 as per the manufacturer's instructions outlined in the above mentioned product sheet sub-category IIA. […] The arrays were analyzed using a Fuji FLA-5100 UV scanner at the 532 nm for the Cy3 dye and 635 nm for the Cy5 dye. […]\nThe evaluation of changes in protein concentration due to the presence of Q10 was evaluated through the utilization of antibody microarray methods. […]\nOnce data sets were collected for all arrays, the data was scrutinized against three major parameters. […] An evaluation of the positive and negative Cy3/Cy5 data (included as controls on the chip) and a visual inspection of the spectral density for a given spot it was determined that and array data point with a spectral density less than 10 was approaching the background level and deemed statistically irrelevant and removed from the data series. […]"}, "[3]": {"system": "Ewing Sarcoma cell lines (JDT, 0808)", "assay": "Combined antibody array, 2-D gel/MS and real time PCR microarray", "type": "cell-based", "conditions": "in response to CoQ10 treatment", "description": "Functional groups were identified using “The Database for Annotation, Visualization and Integrated Discovery’ [DAVID] that subdivided the genes in 42 major clusters. Maximum number of genes from the list were segregated within the “Regulation of Cellular Process” and “Metabolic Process” functional groups with the other proteins spread over functional groups including regulation of transcription, programmed cell death, cell development, cytoskeleton, nucleus, proteosome and organ development."}, "NCIES0808 cells [4]": {"system": "NCIES0808 cells", "assay": "Real-time PCR, Human Mitochondrial arrays", "type": "cell-based", "conditions": "CoQ10 doses and time points examined (50/100 uM; 3-48 hours)", "experimental": "as §1, with “First strand cDNA was synthesized from 0.5 ug of all RNA samples using instructions provided with the First strand kit (SABiosciences, Frederick, Md.). The synthesized first strand from a sample was dispensed equally in a PCR array plate containing primers within a pathway (Angiogenesis, Diabetes and Mitochondria) (SABiosciences Corporation, Frederick, Md.). The arrays were amplified with real time PCR using the SYBR green detection methods using manufacturer approved protocols.” left out, “calculated. […]” for “calculated.”"}, "NCI-ES-0808 cells": {"system": "NCI-ES-0808 cells", "assay": "Cell morphology by microscopy", "type": "cell-based, human", "experimental": "as §1, with “RNA isolation from cell pellets was carried out with the RNeasy kit (Qiagen, Valencia Calif.) according to the manufacturer's instructions.” left out, “First strand cDNA was synthesized from 0.5 ug of all RNA samples using instructions provided with the First strand kit (SABiosciences, Frederick, Md.). The synthesized first strand from a sample was dispensed equally in a PCR array plate containing primers within a pathway (Angiogenesis, Diabetes and Mitochondria) (SABiosciences Corporation, Frederick, Md.). The arrays were amplified with real time PCR using the SYBR green detection methods using manufacturer approved protocols.” left out\nThe morphology of NCI-ES-0808 cells was monitored following treatment with CoQ10. […]"}}}
{"substance": "Coenzyme Q10 [CoQ10]", "values": [{"measurement": "Pattern of regulation, ANGPTL3 mRNA", "setting": "NCIES0808 cells [1]; 3 hours", "value": "Down regulation at 3 hours with 100 uM Q10."}, {"measurement": "Pattern of regulation, CCL2 mRNA", "setting": "NCIES0808 cells [1]; 3 hours", "value": "Down regulation at 3 hours with 100 uM Q10."}, {"measurement": "Pattern of regulation, CDH5 mRNA", "setting": "NCIES0808 cells [1]; 3 hours", "value": "Down regulation at 3 and 24 hours with 100 uM Q10."}, {"measurement": "Pattern of regulation, CXCL1 mRNA", "setting": "NCIES0808 cells [1]; 3 hours", "value": "Down regulation at 3 hours with 100 uM Q10"}, {"measurement": "Pattern of regulation, CXCL3 mRNA", "setting": "NCIES0808 cells [1]; 3 hours", "value": "Down regulation at 3 hours with 100 uM Q10."}, {"measurement": "Pattern of regulation, LAMA5 mRNA", "setting": "NCIES0808 cells [1]; 6 hours", "value": "Up regulation at 6 hours with 100 uM Q10."}, {"measurement": "Pattern of regulation, CDH5 mRNA", "setting": "NCIES0808 cells [1]; 24 hours", "value": "Down regulation at 3 and 24 hours with 100 uM Q10."}, {"measurement": "Pattern of regulation, PXLDC1 mRNA", "setting": "NCIES0808 cells [1]; 48 hours", "value": "Up regulation at 48 hours with 100 uM Q10."}, {"measurement": "Expression of CBP/p300", "setting": "NCIES0808 cells [2]; ES0808 cell line, compared to baseline", "value": "increase"}, {"measurement": "Decrease in expression (value = protein), discussion list", "setting": "NCIES0808 cells [2]; NCIES 0808 cells in response to CoQ10", "value": "HDAC2 and HDAC4 and mTOR"}, {"measurement": "FOXO1a expression", "setting": "NCIES0808 cells [2]; treatment with 100 μM CoQ10", "value": "up regulated"}, {"measurement": "Number of gene products whose expression is significantly influenced", "setting": "[3]", "value": "over 90"}, {"measurement": "Share of identified gene products down-regulated", "setting": "[3]", "value": "~40", "unit": "%"}, {"measurement": "Share of identified gene products up-regulated", "setting": "[3]", "value": "approximately 60%"}, {"measurement": "Genes modulated on Human Mitochondrial arrays", "setting": "NCIES0808 cells [4]", "value": "did not reveal any modulated genes"}, {"measurement": "Differences in cell number or morphology (FIG. 1 legend)", "setting": "NCI-ES-0808 cells; 3, 6, 24, 48 hours, 50 uM and 100 uM Q10", "value": "no distinct differences in either cell number or morphology"}, {"measurement": "Differences in morphology, apoptotic cells or cell number by microscopy", "setting": "NCI-ES-0808 cells; among treatment groups, 3 hrs and 6 hrs post treatment (FIG. 1)", "value": "No differences in morphology, number of visually ascertainable apoptotic cells or cell number"}]}
